According to PubChem BioAssay (NCI):
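Cells were grown in 96-well plates and exposed to each compound for 48 hours at five concentrations; endpoints were interpolated linearly between bracketing concentrations, or set to the highest concentration if not reached. GI50 is the concentration that inhibits growth by half. TGI: concentration producing complete growth inhibition.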

What was measured:
Test in all cases: NCI tumour cell line growth inhibition, 48 h
[1] = tested on: ACHN renal
[2] = tested on: CAKI-1 renal
[3] = tested on: HCT-116 colon
[4] = tested on: HOP-62 NSCLC
[5] = tested on: HOP-92 NSCLC
[6] = tested on: KM12 colon
[7] = tested on: LOX IMVI melanoma
[8] = tested on: OVCAR-8 ovarian
[9] = tested on: MDA-MB-231 breast

| SMILES | TGI [1] [µM] | TGI [2] [µM] | TGI [3] [µM] | TGI [4] [µM] | TGI [5] [µM] | TGI [6] [µM] | TGI [7] [µM] | TGI [8] [µM] | TGI [9] [µM] | GI50 [1] [nM] | GI50 [2] [nM] | GI50 [3] [nM] | GI50 [4] [nM] | GI50 [5] [nM] | GI50 [6] [nM] | GI50 [9] [nM] | GI50 [8] [nM] | GI50 [7] [nM] |
| --- | --- | --- | --- | --- | --- | --- | --- | --- | --- | --- | --- | --- | --- | --- | --- | --- | --- | --- |
| CCCCC1=C(C(=O)N2CCOCC2)C2(OCCO2)C1=O | 34.8 | 78.1 | 48.6 | 54.1 | 66.4 | 55.9 | 25.4 | 58.3 | – | – | – | – | – | – | – | – | – | – |
| CC(C)c1cccc(C(C)C)c1NC(=O)/C(CC(=O)CC(c1ccccc1)c1c(O)c2ccccc2oc1=O)=N/O (stereo not drawn) | > 100 | > 100 | > 100 | > 100 | > 100 | > 100 | > 100 | > 100 | > 100 | – | – | – | – | – | – | – | – | – |
| COc1cc(C(=O)Oc2ccc3c(c2)OCO3)cc(OC)c1OC | > 100 | > 100 | – | > 100 | > 100 | > 100 | > 100 | > 100 | > 100 | – | – | – | – | – | – | – | – | – |
| CC1(C)OCC2OC3([C@@H]4OC(C)(C)O[C@H]4CO)OC(C)(C)OC3C2O1 (stereo partly drawn) | > 100 | > 100 | > 100 | > 100 | > 100 | > 100 | > 100 | > 100 | > 100 | – | – | – | – | – | – | – | – | – |
| Nc1nc(Cl)cc(NCC2(O)CC2)n1 | > 100 | > 100 | > 100 | > 100 | > 100 | > 100 | > 100 | > 100 | > 100 | – | – | – | – | – | – | – | – | – |
| COc1ccc(-c2c3c(n(C4OC(CO)C(O)C(O)C4O)c(=S)c2C#N)CCC3)cc1 (stereo not drawn) | > 100 | > 100 | > 100 | > 100 | > 100 | > 100 | > 100 | – | > 100 | – | – | – | – | – | – | – | – | – |
| C/C=C(/C)C(=O)OC1CC(C)[C@H]2CC(=O)C(C)=C2CC1C(C)(C)OC(C)=O (stereo partly drawn) | > 100 | > 100 | 40.7 | 95 | 78 | 91.6 | 36.2 | > 100 | > 100 | – | – | – | – | – | – | – | – | – |
| O=C(O)c1cccc2cccc(-c3cccc4cccc(C(=O)O)c34)c12 | > 100 | > 100 | > 100 | > 100 | – | > 100 | > 100 | > 100 | > 100 | – | – | – | – | – | – | – | – | – |
| CC1CCC2(NC1)OC1CC3C4CC=C5CC(OC6OC(CO)C(OC7OC(C)C(O)C(O)C7O)C(O)C6OC6OC(C)C(O)C(O)C6O)CCC5(C)C4CCC3(C)C1C2C (stereo not drawn) | 14.6 | 8.66 | 4.91 | > 100 | 21.1 | 9.17 | 19.9 | 8.31 | 8.93 | – | – | – | – | – | – | – | – | – |
| CC(C)C(=O)C(C)(C)CCc1ccccn1 | > 100 | > 100 | > 100 | > 100 | > 100 | > 100 | > 100 | > 100 | > 100 | – | – | – | – | – | – | – | – | – |
| Cc1cc(S(=O)(=O)Nc2n[nH]c(-c3ccccn3)n2)c(S)cc1Cl | 54.1 | 15.7 | 55.1 | 59 | 64.1 | > 100 | > 100 | 30.4 | > 100 | – | – | – | – | – | – | – | – | – |
| CS(=O)(=O)Nc1ccc2c(c1)N(S(C)(=O)=O)CC2CCl (stereo not drawn) | > 100 | > 100 | > 100 | > 100 | > 100 | > 100 | > 100 | > 100 | > 100 | – | – | – | – | – | – | – | – | – |
| O=C1C=CC=C/C1=C1\N=C(c2ccccc2OCC(=O)c2ccccc2)SS1 | > 100 | > 100 | > 100 | > 100 | > 100 | > 100 | > 100 | > 100 | > 100 | – | – | – | – | – | – | – | – | – |
| Cc1ccc2c(c1)-c1c(C#N)c(N)nc(-c3ccc(Cl)cc3)c1CCS2(=O)=O | > 100 | > 100 | > 100 | > 100 | > 100 | > 100 | > 100 | > 100 | > 100 | – | – | – | – | – | – | – | – | – |
| C=C1C(OC2O[C@@H]3O[C@@]4(C)CC[C@H]5[C@H](C)CC[C@@H](C2=C)[C@@]35O4)O[C@@H]2O[C@@]3(C)CC[C@H]4[C@H](C)CC[C@@H]1[C@@]24O3 (stereo partly drawn) | > 50 | > 50 | > 50 | > 50 | > 50 | > 50 | > 50 | – | > 50 | – | – | – | – | – | – | – | – | – |
| CC1C(NNc2ccccc2)Oc2cc3c(cc2C1c1ccccc1O)OCO3 (stereo not drawn) | 13.1 | 13.7 | 18.7 | 16.2 | 26.9 | 16.8 | 28.6 | 86.8 | 28.7 | – | – | – | – | – | – | – | – | – |
| Cc1cc(C)c2c(=O)cc(-c3cccc(F)c3)[nH]c2n1 | > 100 | > 66.3 | 0.433 | > 79.9 | 0.489 | 13.3 | 22 | > 100 | 4.17 | – | – | – | – | – | – | – | – | – |

| SMILES | TGI [1] [µM] | TGI [2] [µM] | TGI [3] [µM] | TGI [4] [µM] | TGI [5] [µM] | TGI [6] [µM] | TGI [7] [µM] | TGI [8] [µM] | TGI [9] [µM] | GI50 [1] [nM] | GI50 [2] [nM] | GI50 [3] [nM] | GI50 [4] [nM] | GI50 [5] [nM] | GI50 [6] [nM] | GI50 [9] [nM] | GI50 [8] [nM] | GI50 [7] [nM] |
| --- | --- | --- | --- | --- | --- | --- | --- | --- | --- | --- | --- | --- | --- | --- | --- | --- | --- | --- |
| CSC(SC)=C(C(=O)O)P(=O)(O)O | > 100 | > 100 | > 100 | > 100 | > 100 | > 100 | > 100 | > 100 | > 100 | – | – | – | – | – | – | – | – | – |
| CN(C)c1ccc(/C=C(\NC(=O)c2ccccc2)c2nn(C)c(=O)o2)cc1 | > 100 | > 100 | > 100 | 38.1 | > 100 | > 100 | > 100 | 82.9 | > 100 | – | – | – | – | – | – | – | – | – |
| COc1cccc2c1C(=O)c1c(O)c3c(c(O)c1C2=O)C[C@H](O)C[C@@H]3OC1CC(N)C(O)C(C)O1 (stereo partly drawn) | 3.54 | 4.83 | 7.88 | 10.5 | 17.6 | 10.1 | 2.92 | 3.64 | 6.05 | – | – | – | – | – | – | – | – | – |
| CO[C@H]1SC[C@H](OC(C)=O)[C@H](OC(C)=O)[C@H]1OC(C)=O | > 100 | > 100 | > 100 | > 100 | – | > 100 | > 100 | > 100 | > 100 | – | – | – | – | – | – | – | – | – |
| COc1ccc(OC2OC(CO)C(OCc3ccccc3)C(OCc3ccccc3)C2OCc2ccccc2)cc1 (stereo not drawn) | > 100 | > 100 | > 100 | > 100 | – | > 100 | > 100 | > 100 | > 100 | – | – | – | – | – | – | – | – | – |
| COC(=O)Cc1ccc2c(cnn2-c2ccccc2)c1OC | > 10 | > 10 | > 10 | > 10 | – | > 10 | > 10 | > 10 | > 10 | – | – | – | – | – | – | – | – | – |
| COc1cc(-c2n/c(=C\c3c(O)[nH]c4ccc(Cl)cc34)cc3c2=Nc2ccccc2-3)ccc1F | 3.76 | 8.66 | 3.34 | 2.52 | 3.82 | 5.01 | – | 5.19 | 3.22 | 1850 | 2550 | 1750 | 1170 | 1730 | 2280 | 1560 | 2030 | – |
| C=C(C)OCOCCOC | > 100 | > 100 | > 100 | > 100 | – | > 100 | > 100 | > 100 | > 100 | – | – | – | – | – | – | – | – | – |
| N#C/C(C(=O)Nc1ccc(Cl)cc1)=C(/N)N1CCCC1 | > 100 | > 100 | > 100 | > 100 | > 100 | > 100 | > 100 | > 100 | – | – | – | – | – | – | – | – | – | – |
| c1cncc(CC2(c3cc4ccccc4[nH]3)OCCO2)c1 | > 100 | > 100 | > 100 | – | > 100 | > 100 | > 100 | > 100 | > 100 | – | – | – | – | – | – | – | – | – |
| COc1ccccc1CN=C1Nc2ccncc2S(=O)(=O)N1c1ccccc1 | > 100 | > 100 | > 100 | – | > 100 | > 100 | > 100 | > 100 | – | – | – | – | – | – | – | – | – | – |
| CCP(=O)(OC)C1=CCN(C(=O)OCC[Si](C)(C)C)CC1 (stereo not drawn) | > 100 | > 100 | – | > 100 | > 100 | > 100 | > 100 | > 100 | > 100 | – | – | – | – | – | – | – | – | – |
| CC(C)C(CC(=O)OCC(CO)OC(=O)CC(C(C)C)C(C)C)C(C)C (stereo not drawn) | 24.3 | 25.4 | 33.4 | 23 | 16.9 | 32 | – | – | 33.9 | – | – | – | – | – | – | – | – | – |
| Cc1ccc(C(=O)N/N=C(\N=Nc2ccccc2)c2ccc(N(C)C)cc2)cc1 | – | > 100 | > 100 | – | > 100 | > 100 | > 100 | > 100 | > 100 | – | – | – | – | – | – | – | – | – |
| COC(=O)C1CCc2sc3ncnc(Nc4cn[nH]c4C(=O)Nc4ccc(CN5CCN(C)CC5)cc4)c3c21 (stereo not drawn) | 10.1 | – | – | 19.5 | 5.88 | 2.63 | 1.79 | 75.1 | – | 232 | – | – | 453 | 1140 | 207 | – | 711 | 405 |
| O=C1N=C2SC(=S)NC(=S)N2NC12c1ccccc1-c1ccccc12 | – | > 10 | – | > 10 | > 10 | > 10 | > 10 | > 10 | > 10 | – | – | – | – | – | – | – | – | – |
| COC(=O)C1C(C(=O)OC)C2(OC(c3ccc(Cl)cc3)=CC2=O)C12OC(c1ccc(Cl)cc1)=CC2=O (stereo not drawn) | 39.4 | 59 | 30.4 | – | 37.6 | – | 57.4 | – | 78.6 | – | – | – | – | – | – | – | – | – |
